{"source": "paper PMC11284787", "about": "“Ligand-Directed Labeling of the Adenosine A1 Receptor in Living Cells” (Journal of Medicinal Chemistry, 2024)", "key": {"NL-rA1AR": {"molecular_target": "T1, NL-rA1AR (Rattus norvegicus, UniProt P25099)", "T1 construct": "expressed in transfected cells", "T1 sequence (P25099 1-326)": "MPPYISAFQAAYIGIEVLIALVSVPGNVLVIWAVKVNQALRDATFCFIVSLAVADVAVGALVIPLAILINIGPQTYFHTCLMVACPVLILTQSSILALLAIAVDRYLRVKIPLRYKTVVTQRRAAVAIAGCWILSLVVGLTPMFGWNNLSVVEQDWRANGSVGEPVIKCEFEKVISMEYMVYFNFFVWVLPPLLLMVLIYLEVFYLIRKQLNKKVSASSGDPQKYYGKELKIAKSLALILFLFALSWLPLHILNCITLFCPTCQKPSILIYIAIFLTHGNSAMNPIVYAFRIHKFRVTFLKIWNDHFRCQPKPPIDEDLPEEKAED", "experiment": "NanoBRET saturation ligand-binding assay, NL-rA1AR", "method": "The ligand-binding properties of the newly synthesized probes were assessed in a series of pharmacological assays. Initially, a NanoBRET[47],[48] saturation binding experiment was used to evaluate the binding affinity of ligand-directed probes functionally labeled with the SulfoCy5 fluorophore (11) to the NanoLuc(NL)-tagged[49] hA1AR expressed in HEK293T cells.\n(§1) NanoBRET binding assay. All NanoBRET experiments were performed in white flat […]\n(§2) 37 °C for kinetic binding experiments. Emissions were read at 420 nm (80 nm bandpass; […]\n(§3) the SulfoCy5-labelled probe. […]\n(§4) nm emission by the 420 nm emission. The term “raw BRET ratio” refers to the unprocessed data as no background ratio has been subtracted. In all NanoBRET binding […]\n(§5) competitive antagonist selective for the adenosine receptor under investigation […]\n(§6) MRS1220 for the A3AR). HEK293T cells stably/transiently expressing Nluc-AR were […]\n(§7) were incubated for 1 h at 37 °C. […]\nNanoBRET saturation binding assay. Total and nonspecific saturation binding curves were fit simultaneously using the following equation: […]"}, "NL-hA3AR": {"molecular_target": "T2, NL-hA3AR (Homo sapiens, UniProt P0DMS8)", "T2 construct": "expressed in transfected cells", "T2 sequence (P0DMS8 1-318)": "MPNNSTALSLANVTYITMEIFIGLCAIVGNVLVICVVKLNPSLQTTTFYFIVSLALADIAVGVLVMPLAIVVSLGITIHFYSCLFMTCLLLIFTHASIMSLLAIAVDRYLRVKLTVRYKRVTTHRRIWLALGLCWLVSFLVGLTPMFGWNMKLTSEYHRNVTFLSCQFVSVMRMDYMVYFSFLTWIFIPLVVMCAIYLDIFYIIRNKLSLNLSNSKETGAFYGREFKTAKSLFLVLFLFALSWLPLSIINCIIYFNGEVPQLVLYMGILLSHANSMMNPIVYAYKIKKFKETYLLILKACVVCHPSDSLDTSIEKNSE", "experiment": "NanoBRET saturation ligand-binding assay, NL-hA3AR", "method": "Probes 11 and 12 were further evaluated for their ability to bind the other three adenosine receptor subtypes (NL-A2AAR, NL-A2BAR, and NL-A3AR), and their ligand-binding properties were quantified in the NanoBRET saturation and inhibition binding assays, respectively (Table 1 and Figure 4).\nas §1, §2, §3, §4, §5, §6, §7\nNanoBRET saturation binding assay. Total and nonspecific saturation binding curves were fit simultaneously using the following equation:\nBRET ratio = Bmax[B] + M(B) + C […]\nUninhibited specific binding = 100 ― 100 x [A]"}}, "note": "Where two headings read alike, the source gives them in different places.", "data": [{"compound": "CCCCn1c(=O)c2[nH]c(C34CCC(C(=O)NCCNC(=O)CCNC(=O)c5ccc(OC(=O)CCCCC[N+]6=C(/C=C/C=C/C=C7/N(C)c8ccc(S(=O)(=O)O)cc8C7(C)C)C(C)(C)c7cc(S(=O)(=O)[O-])ccc76)c(F)c5)(CC3)CC4)nc2n(CCCC)c1=O", "note": "[Compound 11, 1-(6-(4-((3-((2-(4-(1,3-Dibutyl-2,6-dioxo-2,3,6,7-tetrahydro-1H-purin-8-yl)bicyclo[2.2.2]octane-1-carboxamido)ethyl)amino)-3-oxopropyl)carbamoyl)-2-fluorophenoxy)-6-oxohexyl)-3,3-dimethyl-2-((1E,3E)-5-((E)-1,3,3-trimethyl-5-sulfoindolin-2-ylidene)penta-1,3-dien-1-yl)-3H-indol-1-ium-5-sulfonate]", "values": [{"measurement": "Kd", "setting": "NL-rA1AR; HEK293T cells stably expressing rat NanoLuc-A1AR, mean ± SEM, read-out: affinity values pKD, NL-rA1AR (converted)", "result": 9.12, "unit": "nM"}, {"measurement": "Kd", "setting": "NL-rA1AR; supplementary CSV, read-out: AFFINITY (A1AR_rat) pKD (converted)", "result": 10.2, "unit": "nM"}, {"measurement": "Kd", "setting": "NL-hA3AR; HEK293T cells stably expressing NL-hA3AR, read-out: affinity values pKD, NL-hA3AR (converted)", "result": "> 1000", "unit": "nM"}, {"measurement": "BRET signal detected at NL-A3AR", "setting": "NL-hA3AR; concentrations tested 0–500 nM", "result": "minimal BRET signal"}]}]}
